Measured values taken from patent publication US10668094B2, “Selective inhibitors of Alpha2-containing isoforms of Na,K-ATPase and use thereof for reduction of intraocular pressure” (Yeda Research and Development Co. Ltd., priority 2015, dated 2020).
Read-outs that look alike come from different tables or passages of the source.

Columns and labels:
[1] = target: human Na,K-ATPase α2β2FXYD1 (Homo sapiens (Human), UniProt P50993); type: biochemical
[2] = target: human Na,K-ATPase α2β3FXYD1 (Homo sapiens (Human), UniProt P50993+P54709); experiment: biochemical; type: biochemical
[3] = target: human Na,K-ATPase α2β1FXYD1 (Homo sapiens, UniProt P50993); type: biochemical
[4] = tested on: human Na,K-ATPase α2β1FXYD1; type: biochemical
[5] = target: human Na,K-ATPase α1β1FXYD1 (Homo sapiens (Human), UniProt P05023); type: biochemical
basal IOP in rabbits = experiment: Basal IOP in rabbits, topical administration; type: in vivo, rabbit

| SMILES | Selectivity Ki ratio α1β1/α2β2 [1] | Ki ([1]; read-out: Ki in nM ± SEM α2β2) | Selectivity Ki ratio α1β1/α2β3 [2] | Ki ([2]; read-out: Ki in nM ± SEM α2β3) | Ki ([3]; read-out: Ki in nM ± SEM α2β1) | Selectivity Ki ratio α1β1/α2β1 [4] | Ki ([5]; read-out: Ki in nM ± SEM α1β1) | selectivity for α2β3 over α1β1 (Ki α1β1:α2β3 ratio) [2] | also measured |
| --- | --- | --- | --- | --- | --- | --- | --- | --- | --- |
| CC1CN(CCS(N)(=O)=O)CCC(O[C@@H]2C(C)O[C@@H](OC3C(C)OC(O[C@H]4CC[C@@]5(C)C(CCC6C5CC(O)[C@]5(C)[C@@H](C7=CC(=O)OC7)CC[C@]65O)C4)C[C@@H]3O)C[C@@H]2O)O1 (stereo in doubt) [DESA, 2-(7-(((2R,3S,4S,6S)-6-(((2R,3R,4S,6S)-6-(((3S,5R,8R,9S,10S,12R,13S,14S,17R)-12,14-dihydroxy-10,13-dimethyl-17-(5-oxo-2,5-dihydrofuran-3-yl)hexadecahydro-1H-cyclopenta[a]phenanthren-3-yl)oxy)-4-hydroxy-2-methyltetrahydro-2H-pyran-3-yl)oxy)-4-hydroxy-2-methyltetrahydro-2H-pyran-3-yl)oxy)-2-methyl-1,4-oxazepan-4-yl)ethanesulfonamide] | 9.5 | 31.5 ± 4.4 nM | 15 | 20.1 ± 0.9 nM | 38.9 ± 2.2 nM | 7.7 | 301 ± 23 nM | – | – |
| CC1CN(CCS(C)(=O)=O)CCC(O[C@@H]2C(C)O[C@@H](OC3C(C)OC(O[C@H]4CC[C@@]5(C)C(CCC6C5CC(O)[C@]5(C)[C@@H](C7=CC(=O)OC7)CC[C@]65O)C4)C[C@@H]3O)C[C@@H]2O)O1 (stereo in doubt) [DESM, 4-((3S,5R,8R,9S,10S,12R,13S,14S,17R)-12,14-dihydroxy-3-(((2S,4S,5R,6R)-4-hydroxy-5-(((2S,4S,5S,6R)-4-hydroxy-6-methyl-5-((2-methyl-4-(2-(methylsulfonyl)ethyl)-1,4-oxazepan-7-yl)oxy)tetrahydro-2H-pyran-2-yl)oxy)-6-methyltetrahydro-2H-pyran-2-yl)oxy)-10,13-dimethylhexadecahydro-1H-cyclopenta[a]phenanthren-17-yl)furan-2(5H)-one] | 14.6 | 31.7 ± 3.2 nM | 18.8 | 24.7 ± 2.1 nM | 49.2 ± 1.9 nM | 9.4 | 464 ± 14 nM | – | – |
| CC1CN(CS(C)(=O)=O)CCC(O[C@@H]2C(C)O[C@@H](OC3C(C)OC(O[C@H]4CC[C@@]5(C)C(CCC6C5CC(O)[C@]5(C)[C@@H](C7=CC(=O)OC7)CC[C@]65O)C4)C[C@@H]3O)C[C@@H]2O)O1 (stereo in doubt) [DMSM, 4-((3S,5R,8R,9S,10S,12R,13S,14S,17R)-12,14-dihydroxy-3-(((2S,4S,5R,6R)-4-hydroxy-5-(((2S,4S,5S,6R)-4-hydroxy-6-methyl-5-((2-methyl-4-((methylsulfonyl)methyl)-1,4-oxazepan-7-yl)oxy)tetrahydro-2H-pyran-2-yl)oxy)-6-methyltetrahydro-2H-pyran-2-yl)oxy)-10,13-dimethylhexadecahydro-1H-cyclopenta[a]phenanthren-17-yl)furan-2(5H)-one] | 7.7 | 123 ± 7.3 nM | 10.6 | 89 nM | 137 ± 9.8 nM | 6.9 | 944 ± 123 nM | – | – |
| CC1CN(C2CCCCC2)CCC(O[C@@H]2C(C)O[C@@H](OC3C(C)OC(O[C@H]4CC[C@@]5(C)C(CCC6C5CC(O)[C@]5(C)[C@@H](C7=CC(=O)OC7)CC[C@]65O)C4)C[C@@H]3O)C[C@@H]2O)O1 (stereo in doubt) [DcH, 4-((3S,5R,8R,9S,10S,12R,13S,14S,17R)-3-(((2S,4S,5R,6R)-5-(((2S,4S,5S,6R)-5((4-cyclohexyl-2-methyl-1,4-oxazepan-7-yl)oxy)-4-hydroxy-6-methyltetrahydro-2H-pyran-2-yl)oxy)-4-hydroxy-6-methyltetrahydro-2H-pyran-2-yl)oxy)-12,14-dihydroxy-10,13-dimethylhexadecahydro-1H-cyclopenta[a]phenanthren-17-yl)furan-2(5H)-one] | 4.6 | 15.3 ± 2.9 nM | 10.1 | 11.7 ± 4.5 nM | 15.2 ± 3.7 nM | 4.6 | 70.4 ± 4.1 nM | 10-12 fold | – |
| CC1CN(C2CCCC2)CCC(O[C@@H]2C(C)O[C@@H](OC3C(C)OC(O[C@H]4CC[C@@]5(C)C(CCC6C5CC(O)[C@]5(C)[C@@H](C7=CC(=O)OC7)CC[C@]65O)C4)C[C@@H]3O)C[C@@H]2O)O1 (stereo in doubt) [DcPe, 4-((3S,5R,8R,9S,10S,12R,13S,14S,17R)-3-(((2S,4S,5R,6R)-5-(((2S,4S,5S,6R)-5-((4-cyclopentyl-2-methyl-1,4-oxazepan-7-yl)oxy)-4-hydroxy-6-methyltetrahydro-2H-pyran-2-yl)oxy)-4-hydroxy-6-methyltetrahydro-2H-pyran-2-yl)oxy)-12,14-dihydroxy-10,13-dimethylhexadecahydro-1H-cyclopenta[a]phenanthren-17-yl)furan-2(5H)-one] | 4.1 | 33.5 ± 11.9 nM | 5 | 27.6 ± 9.5 nM | 33.4 ± 7.5 nM | 4.1 | 138 ± 21 nM | 10-12 fold | – |
| CC1CN(Cc2ccccc2)CCC(O[C@@H]2[C@H](C)O[C@@H](O[C@@H]3[C@H](C)O[C@@H](O[C@H]4CC[C@@]5(C)C(CCC6C5C[C@H](O)[C@]5(C)[C@@H](C7=CC(=O)OC7)CC[C@]65O)C4)C[C@@H]3O)C[C@@H]2O)O1 (stereo partly drawn) [DBz, 4-(3S,5R,8R,9S,10S,12R,13S,14S,17R)-3-(((2S,4S,5R,6R)-5-(((2S,4S,5S,6R)-5 ((4-benzyl-2-methyl-1,4-oxazepan-7-yl)oxy)-4-hydroxy-6-methyltetrahydro-2H-pyran-2-ypoxy)-4-hydroxy-6-methyltetrahydro-2H-pyran-2-yl)oxy)-12,14-dihydroxy-10,13-dimethythexadecahydro-1H-cyclopenta[a]phenanthren-17-yl)furan-2(5H)-one] | 8.5 | 6.8 ± 1.2 nM | 10.3 | 5.6 ± 1.6 nM | 10.1 ± 2.2 nM | 5.7 | 57.9 ± 15.5 nM | 10-12 fold | – |
| CC1CN(CC(F)(F)F)CCC(O[C@@H]2[C@H](C)O[C@@H](O[C@@H]3[C@H](C)O[C@@H](O[C@H]4CC[C@@]5(C)C(CCC6C5C[C@H](O)[C@]5(C)[C@@H](C7=CC(=O)OC7)CC[C@]65O)C4)C[C@@H]3O)C[C@@H]2O)O1 (some centres unmarked) [DCF3] | 6.5 | 18.1 ± 1.9 nM | 9.6 | 12.4 ± 1.5 nM | 28.6 ± 0.9 nM | 4.1 | 119 nM | – | – |
| CC1CN(CCC2CC2)CCC(O[C@@H]2[C@H](C)O[C@@H](O[C@@H]3[C@H](C)O[C@@H](O[C@H]4CC[C@@]5(C)C(CCC6C5C[C@H](O)[C@]5(C)[C@@H](C7=CC(=O)OC7)CC[C@]65O)C4)C[C@@H]3O)C[C@@H]2O)O1 (some centres unmarked) [DEcP] | 7.1 | 12.1 ± 1.9 nM | 12.02 | 7.2 ± 1 nM | 14.3 ± 2 nM | 6.02 | 86.1 ± 7 nM | 10-12 fold | – |
| CCN1CCC(O[C@@H]2[C@H](C)O[C@@H](O[C@@H]3[C@H](C)O[C@@H](O[C@H]4CC[C@@]5(C)C(CCC6C5C[C@H](O)[C@]5(C)[C@@H](C7=CC(=O)OC7)CC[C@]65O)C4)C[C@@H]3O)C[C@@H]2O)OC(C)C1 (some centres unmarked) [DEt] | 8.3 | 16.4 ± 1.6 nM | 9.5 | 14.4 ± 1.27 nM | 23.2 ± 0.9 nM | 5.9 | 138 ± 12.6 nM | – | – |
| CC(C)OC(=O)CCC/C=C\C[C@@H]1[C@@H](CC[C@@H](O)CCc2ccccc2)[C@H](O)C[C@@H]1O [Latanoprost, reference compound] | – | – | – | – | – | – | – | – | time after which IOP returned to the control value (basal IOP in rabbits; 1 mM DcB, 0.005% Latanoprost): 12 h; steady-state IOP as % of the unchanged control values (basal IOP in rabbits; after 3-8 hours): 85%; steady-state IOP lower than basal IOP (basal IOP in rabbits; after 3-8 hours, basal IOP 17-18 mmHg, 1 mM DcB, 0.005% Latanoprost): 2.6±0.11 mmHg |
| CC(=O)O[C@H]1C[C@H](O[C@H]2[C@@H](OC(C)=O)C[C@H](O[C@H]3CC[C@@]4(C)[C@H](CC[C@@H]5[C@@H]4C[C@@H](OC(C)=O)[C@]4(C)[C@@H](C6=CC(=O)OC6)CC[C@]54O)C3)O[C@@H]2C)O[C@H](C)[C@H]1OC1CCN(C2CCC2)CC(C)O1 (stereo partly drawn) [TrisAcDcB, (2R,3R,4S,6R)-6-(((3S,5R,8R,9S,10S,12R,13S,14S,17R)-12-acetoxy-14-hydroxy-10,13-dimethyl-17-(5-oxo-2,5-dihydrofuran-3-yl)hexadecahydro-1H-cyclopenta[a]phenanthren-3-yl)oxy)-3-(((2S,4S,5R,6R)-4-acetoxy-5-((4-cyclobutyl-2-methyl-1,4-oxazepam-7-yl)oxy)-6-methyltetrahydro-2H-pyran-2-yl)oxy)-2-methyltetrahydro-2H-pyran-4-yl acetate] | – | – | – | – | – | – | – | – | Ki of α2β1 higher than that of DcB [3]: ~300 fold; Ki ([3]; read-out: Ki of α2β1FXYD1): 2500 ± 490 nM; time of return of IOP to the control level (basal IOP in rabbits; 0.05, 0.1, 0.2 mM): 12 h; time to minimum IOP (basal IOP in rabbits; 0.05, 0.1, 0.2 mM): 5 to 6 h; maximal effect on IOP compared with parent DcB (basal IOP in rabbits; 0.05-0.2 mM prodrug): essentially equal to that produced by the parent DcB; minimum IOP (basal IOP in rabbits; from 15-16 mmHg, 0.05, 0.1, 0.2 mM): 12 mmHg; onset of effect on basal IOP (basal IOP in rabbits; one 30 μl drop, 0.05, 0.1, 0.2 mM): no effect was observed at the first four hours; Ki of α1β1 higher than that of DcB [5]: ~100 fold; Ki ([5]; read-out: Ki of α1β1FXYD1): 13200 ± 6500 nM |
| [O]=[V]([OH])([OH])[OH] [Vanadate, vanadate, reference compound] | – | – | – | – | – | – | – | – | Ki ([1]; read-out: apparent vanadate affinity α2β2): 34000 nM; Ki ([2]; read-out: apparent vanadate affinity α2β3): 1900 nM; Ki ([3]; Example 2, vanadate titration, read-out: apparent vanadate affinity α2β1): 3500 nM; Ki ([5]; read-out: apparent vanadate affinity α1β1): 480 nM |
